Counter-ions that a name gives are not always drawn.

One series relates to Notch 1 intracellular domain. The series is described as follows: Ability of compounds to block Notch signaling: Western analysis of active Notch 1 protein (Notch 1 intracellular domain) in SUP-T1 cells. Type of series: cell-based. Particulars: Homo sapiens; T lymphoblast SUP-T1 cells, 12-16 h with compound; Western blot with antibody to cleaved Notch 1 (Val 1744), band of approximately 100 kDa; read-out: estimated IC50. The method, then: T lymphoblast SUP-T1 cells (CRL-1942, ATCC, Manassas, Va.) are routinely cultured in culture medium comprising RPMI-1640 (Invitrogen, Carlsbad, Calif.) supplemented with 10% Fetal Bovine serum (Sigma Chemical Co., St. Louis, Mo.) and 2 mM glutamine (Invitrogen, Carlsbad, Calif.) and grown at 37° C. at 95%/5% (v/v) air/CO2 in 95% relative humidity (standard cell culture conditions). Cells in culture medium are plated into flat-bottomed tissue culture plates (Corning Costar, Acton, Mass.) Subsequently, a compound of Formula (1) or vehicle (e.g., 0.1% (v/v) DMSO) may be added and plates are incubated for a further 12-16 h under standard cell culture conditions. Subsequently, the presence of active Notch 1 protein (Notch 1 intracellular domain) is determined by Western analysis according to conventional methods. Immunoblotting is performed using a primary antibody to cleaved Notch 1 (Val 1744; Cell Signaling Technology, Danvers, Mass.) and a goat anti-rabbit horseradish peroxidase conjugated secondary antibody (Santa Cruz Biotechnology, Santa Cruz, Calif.). For Western blotting, equal amounts of protein extracted from each sample (20 μg) are loaded into pre-cast 4-12% NuPAGE Tris-Glycine gels (Invitrogen, Carlsbad, Calif.). Proteins are separated by SDS-PAGE and transferred electrophoretically to polyvinylidene diflouride membranes (Invitrogen, Carlsbad, Calif.) using a semi-dry blotter. The membrane is washed briefly in Tris-buffered saline (TBS) (Bio-Rad Laboratories, Hercules, Calif.) and blocked for 1 h in TBS supplemented with 0.05% (v/v) Tween 20 (TBST) and 5% (w/v) dried milk, before being incubated for ˜12 h with primary antibody in TBS supplemented with 0.05% (v/v) Tween 20 (TBST) and 5% (w/v) dried milk. Following washing in TBST, the membrane is incubated with secondary antibody as indicated prior to visualization via enhanced chemiluminescent detection using DuraWest reagent (Pierce Biotechnology, Rockford, Ill.) and is detected with Amersham Hyperfilm MP according to the manufacturer's instructions. […]
For orientation: IC50 means the concentration needed to halve the response being measured. Regarding `C[C@H](NC(=O)Cc1cc(F)cc(F)c1)C(=O)N[C@@H]1C(=O)Nc2ccccc2S[C@@H]1c1ccsc1` [Example 100, N^2-[(3,5-Difluorophenyl)acetyl]-N^1-[(2R,3R)-4-oxo-2-(3-thienyl)-2,3,4,5-tetrahydro-1,5-benzothiazepin-3-yl]-L-alaninamide], the IC50 is 50.1 nM. On the same count and under the same terms, in the case of `C[C@H](NC(=O)Cc1ccccc1F)C(=O)N[C@@H]1C(=O)Nc2ccccc2O[C@@H]1c1ccccc1` [Example 114, N^2-[(2-Fluorophenyl)acetyl]-N^1-[(2R,3S)-4-oxo-2-phenyl-2,3,4,5-tetrahydro-1,5-benzoxazepin-3-yl]-L-alaninamide] it was 16.6 nM; in that of `C[C@H](NC(=O)Cc1cc(F)cc(F)c1)C(=O)N[C@@H]1C(=O)Nc2cc(F)ccc2O[C@@H]1c1ccccc1` [Example 75, N^2-[(3,5-Difluorophenyl)acetyl]-N^1-[(2R,3S)-7-fluoro-4-oxo-2-phenyl-2,3,4,5-tetrahydro-1,5-benzoxazepin-3-yl]-L-alaninamide], 3.98 nM.

Test system in another series: not given
Assay: not given
Details: not given
By melting point is commonly meant the temperature of the solid-liquid transition. `O=C(Cc1cc(F)cc(F)c1)N[C@@H](Cc1cc2ccccc2[nH]1)C(=O)N[C@@H]1C(=O)Nc2ccccc2S[C@@H]1c1ccccc1` [Example 110, N^2-[(3,5-Difluorophenyl)acetyl]-3-(1H-indol-2-yl)-N^1-[(2R,3R)-4-oxo-2-phenyl-2,3,4,5-tetrahydro-1,5-benzothiazepin-3-yl]-L-alaninamide] returned a melting point of 85 to 90 °C. The same measure, in the same setting: the same measure for `C[C@H](NC(=O)Cc1cc(F)cc(F)c1)C(=O)N[C@@H]1C(=O)Nc2ccccc2S[C@@H]1c1cccs1` [Example 99, N^2-[(3,5-Difluorophenyl)acetyl]-N^1-[(2S,3R)-4-oxo-2-(2-thienyl)-2,3,4,5-tetrahydro-1,5-benzothiazepin-3-yl]-L-alaninamide]: 117 to 119 °C; for `C[C@H](NC(=O)Cc1cc(F)cc(F)c1)C(=O)N[C@@H]1C(=O)NCCS[C@@H]1c1ccccc1` [Example 7, N^2-[(3,5-Difluorophenyl)acetyl]-N^1-[(6R,7R)-5-oxo-7-phenyl-1,4-thiazepan-6-yl]-L-alaninamide]: 128 to 133 °C. In the case of `C[C@H](NC(=O)Cc1cc(F)cc(F)c1)C(=O)N[C@@H]1C(=O)Nc2ccccc2S[C@@H]1c1ccc(Br)s1` [Example 103, N^1-[(2S,3R)-2-(5-Bromo-2-thienyl)-4-oxo-2,3,4,5-tetrahydro-1,5-benzothiazepin-3-yl]-N^2-[(3,5-difluorophenyl)acetyl]-L-alaninamide], the melting point lay within 139 to 140 °C. Same read-out and setting: in the case of `CSCC[C@H](NC(=O)Cc1cc(F)cc(F)c1)C(=O)N[C@@H]1C(=O)Nc2ccccc2S[C@@H]1c1ccccc1` [Example 109, N^2-[(3,5-Difluorophenyl)acetyl]-N^1-[(2R,3R)-4-oxo-2-phenyl-2,3,4,5-tetrahydro-1,5-benzothiazepin-3-yl]-L-methioninamide] it was 85 to 90 °C. On the same count and under the same terms, the same measure for `N[C@@H](Cc1ccccc1)C(=O)N(C(=O)Cc1cc(F)cc(F)c1)[C@@H]1C(=O)Nc2ccccc2S[C@@H]1c1ccccc1` [Example 105, N-[(3,5-Difluorophenyl)acetyl]-N-[(2R,3R)-4-oxo-2-phenyl-2,3,4,5-tetrahydro-1,5-benzothiazepin-3-yl]-L-phenylalaninamide]: 115 to 120 °C; for `O=C(Cc1cc(F)cc(F)c1)NCC(=O)N[C@@H]1C(=O)Nc2ccccc2S[C@@H]1c1ccccc1` [Example 106, N^2-[(3,5-Difluorophenyl)acetyl]-N^1-[(2R,3R)-4-oxo-2-phenyl-2,3,4,5-tetrahydro-1,5-benzothiazepin-3-yl]glycinamide]: 125 to 130 °C. `C[C@H](NC(=O)Cc1cc(F)cc(F)c1)C(=O)N[C@@H]1C(=O)Nc2ccccc2S[C@@H]1c1ccsc1` [Example 100, N^2-[(3,5-Difluorophenyl)acetyl]-N^1-[(2R,3R)-4-oxo-2-(3-thienyl)-2,3,4,5-tetrahydro-1,5-benzothiazepin-3-yl]-L-alaninamide] displayed a melting point of 117 to 122 °C. On the same count and under the same terms, the same measure for `C[C@H](NC(=O)Cc1cc(F)cc(F)c1)C(=O)N[C@@H]1C(=O)Nc2ccccc2S[C@@H]1c1cc(Br)cs1` [Example 104, N^1-[(2S,3R)-2-(4-Bromo-2-thienyl)-4-oxo-2,3,4,5-tetrahydro-1,5-benzothiazepin-3-yl]-N^2-[(3,5-difluorophenyl)acetyl]-L-alaninamide]: 145 to 155 °C; for `C[C@H](NC(=O)Cc1cccc(F)c1)C(=O)N[C@@H]1C(=O)Nc2ccccc2O[C@@H]1c1ccccc1` [Example 115, N^2-[(3-Fluorophenyl)acetyl]-N^1-[(2R,3S)-4-oxo-2-phenyl-2,3,4,5-tetrahydro-1,5-benzoxazepin-3-yl]-L-alaninamide]: 130 to 140 °C.

`C[C@H](NC(=O)Cc1cc(F)cc(F)c1)C(=O)N[C@@H]1C(=O)Nc2ccccc2S[C@@H]1c1ccco1` [Example 101, N^2-[(3,5-Difluorophenyl)acetyl]-N^1-[(2S,3R)-2-(2-furyl)-4-oxo-2,3,4,5-tetrahydro-1,5-benzothiazepin-3-yl]-L-alaninamide] displayed a melting point of 125 to 130 °C. On the same count and under the same terms, in the case of `C[C@H](NCCc1ccccc1)C(=O)N[C@@H]1C(=O)Nc2ccccc2S[C@@H]1c1ccccc1` (as salt: hydrochloride) [Example 98, N^1-[(2R,3R)-4-Oxo-2-phenyl-2,3,4,5-tetrahydro-1,5-benzothiazepin-3-yl]-N^2-(2-phenylethyl)-L-alaninamide] it was 184 to 195 °C; in that of `C[C@H](NC(=O)Cc1ccccc1F)C(=O)N[C@@H]1C(=O)Nc2ccccc2O[C@@H]1c1ccccc1` [Example 114, N^2-[(2-Fluorophenyl)acetyl]-N^1-[(2R,3S)-4-oxo-2-phenyl-2,3,4,5-tetrahydro-1,5-benzoxazepin-3-yl]-L-alaninamide], 115 to 135 °C; in that of `C[C@H](NC(=O)Cc1ccccc1)C(=O)N[C@@H]1C(=O)Nc2ccccc2S[C@@H]1c1ccccc1` [Example 97, N^1-[(2R,3R)-4-Oxo-2-phenyl-2,3,4,5-tetrahydro-1,5-benzothiazepin-3-yl]-N^2-(phenylacetyl)-L-alaninamide], 114 to 124 °C. Same read-out and setting: the same measure for `C[C@H](NC(=O)Cc1ccc(F)cc1)C(=O)N[C@@H]1C(=O)Nc2ccccc2O[C@@H]1c1ccccc1` [Example 116, N^2-[(4-Fluorophenyl)acetyl]-N^1-[(2R,3S)-4-oxo-2-phenyl-2,3,4,5-tetrahydro-1,5-benzoxazepin-3-yl]-L-alaninamide]: 130 to 140 °C; for `CC(C)[C@H](NC(=O)Cc1cc(F)cc(F)c1)C(=O)N[C@@H]1C(=O)Nc2ccccc2S[C@@H]1c1ccccc1` [Example 107, N^2-[(3,5-Difluorophenyl)acetyl]-N^1-[(2R,3R)-4-oxo-2-phenyl-2,3,4,5-tetrahydro-1,5-benzothiazepin-3-yl]-L-valinamide]: 110 to 115 °C; for `C[C@H](NC(=O)Cc1ccccc1)C(=O)N[C@@H]1C(=O)Nc2ccccc2O[C@@H]1c1ccccc1` [Example 113, N^1-[(2R,3S)-4-Oxo-2-phenyl-2,3,4,5-tetrahydro-1,5-benzoxazepin-3-yl]-N^2-(phenylacetyl)-L-alaninamide]: 122 to 136 °C. In turn, `C[C@H](NC(=O)Cc1cc(F)cc(F)c1)C(=O)N[C@@H]1C(=O)Nc2ccccc2S[C@H]1c1ccoc1` [Example 102, N^2-[(3,5-Difluorophenyl)acetyl]-N^1-[(2S,3R)-2-(3-furyl)-4-oxo-2,3,4,5-tetrahydro-1,5-benzothiazepin-3-yl]-L-alaninamide] returned a melting point of 115 to 120 °C.

Source of the values: patent publication US20090054398A1, “CHEMICAL COMPOUNDS” (ASTRAZENECA AB, priority 2006, published 2009).
